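1) Cells in 96-well plates. 2) Compound, 48 h, 5 concentrations. 3) Linear interpolation between surrounding doses. 4) Unreached endpoint = highest concentration. Abbreviation: GI50, concentration required for 50% inhibition of growth. TGI is the concentration that stops growth completely.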
Tests used:
Test in all cases: NCI-60 cell line screen, 48 h
OVCAR-3 ovarian = tested on: OVCAR-3 ovarian
K-562 leukemia = tested on: K-562 leukemia
MDA-MB-435 = tested on: MDA-MB-435
IGROV1 ovarian = tested on: IGROV1 ovarian
SW-620 colon = tested on: SW-620 colon
MALME-3M melanoma = tested on: MALME-3M melanoma
MDA-N = tested on: MDA-N
M14 melanoma = tested on: M14 melanoma
DU-145 prostate = tested on: DU-145 prostate
BT-549 breast = tested on: BT-549 breast

Row | Structure (SMILES) | TGI (OVCAR-3 ovarian) | TGI (K-562 leukemia) | TGI (MDA-MB-435) | TGI (IGROV1 ovarian) | TGI (SW-620 colon) | TGI (MALME-3M melanoma) | TGI (MDA-N) | TGI (M14 melanoma) | TGI (DU-145 prostate) | TGI (BT-549 breast) | GI50 (OVCAR-3 ovarian) | GI50 (K-562 leukemia) | GI50 (MDA-MB-435) | GI50 (IGROV1 ovarian) | GI50 (SW-620 colon) | GI50 (BT-549 breast) | GI50 (M14 melanoma) | GI50 (DU-145 prostate)
1 | CN(C)c1nc(=NCc2ccccn2)ss1 | > 10 µM | > 9.63 µM | > 10 µM | > 10 µM | > 10 µM | > 8.91 µM | > 10 µM | > 10 µM | > 10 µM | – | – | – | – | – | – | – | – | –
2 | COc1ccc(/C=C/C(=O)c2sc(-n3nc(-c4ccccc4)cc3-c3ccccc3)nc2C)cc1OC | 62.5 µM | 83.3 µM | – | > 100 µM | > 100 µM | > 100 µM | – | > 100 µM | – | – | – | – | – | – | – | – | – | –
3 | Brc1ccc2c(c1)-c1nc3c(cc1CC2)CCc1ccc(Br)cc1-3 | > 100 µM | > 100 µM | > 100 µM | > 100 µM | > 100 µM | > 100 µM | > 100 µM | > 100 µM | – | > 100 µM | – | – | – | – | – | – | – | –
4 | CC/C=C\C/C=C\C/C=C\CCCCCCCC(=O)OC(COC(=O)CCCCCCCCCCCCCCCCC)COC1OC(CO)C(O)C(O)C1O (stereo not given) | > 25 µM | > 25 µM | > 25 µM | > 25 µM | > 25 µM | – | > 25 µM | > 25 µM | > 25 µM | > 25 µM | – | – | – | – | – | – | – | –
5 | CCOC(=O)/C(=C/c1ccco1)P(=O)(OCC)OCC | – | > 100 µM | – | > 100 µM | > 100 µM | > 100 µM | – | > 100 µM | – | – | – | – | – | – | – | – | – | –
6 | NC(CCSCC(F)F)C(=O)O (stereo not given) | > 100 µM | > 100 µM | – | > 100 µM | > 100 µM | > 100 µM | – | > 100 µM | – | – | – | – | – | – | – | – | – | –
7 | NNC(=O)c1cccc2c1Oc1ccccc1S2 | – | > 100 µM | > 100 µM | > 100 µM | > 100 µM | – | – | > 100 µM | > 100 µM | > 100 µM | – | – | – | – | – | – | – | –
8 | C=C1CC=CC(C)(C)C1C/C=C(\C)C(O)CBr (stereo not given) | – | > 100 µM | > 100 µM | > 100 µM | 97.4 µM | – | > 100 µM | > 100 µM | > 100 µM | > 100 µM | – | – | – | – | – | – | – | –
9 | COc1ccc(/C=N/Nc2nc3ccccc3c(=O)n2-c2ccccc2)c(OCc2ccccc2)c1 | > 100 µM | > 100 µM | > 100 µM | > 100 µM | > 100 µM | > 100 µM | – | > 100 µM | > 100 µM | – | – | – | – | – | – | – | – | –
10 | COc1cc(-c2c3c(cc4c2OCO4)[C@@H](Nc2ccc4c(c2)Cc2cc(N[C@@H]5c6cc7c(cc6C(c6cc(OC)c(O)c(OC)c6)[C@H]6C(=O)OC[C@H]56)OCO7)ccc2-4)[C@H]2COC(=O)[C@@H]2C3)cc(OC)c1O (stereo not given in full) | > 100 µM | – | 33.1 µM | 21.3 µM | > 100 µM | 60.4 µM | 34.3 µM | 50.3 µM | > 100 µM | 94.5 µM | – | – | – | – | – | – | – | –
11 | Nc1nc(Nc2ccc(OCc3cccc(F)c3)cc2)c2c(n1)[nH]c1ccc(O)cc12 | 3.46 µM | 6.65 µM | 14.1 µM | 14.7 µM | 6.26 µM | – | – | 4.77 µM | 15.6 µM | 4.01 µM | 1.89 µM | 2.66 µM | 3.68 µM | 3.75 µM | 2.54 µM | 1.88 µM | 2.12 µM | 4.22 µM
12 | Cc1cc(C)nc(NS(=O)(=O)c2ccc(Nc3c4ccccc4nc4c(C(=O)N5CCN(CCOS(C)(=O)=O)CC5)ccc(Cl)c34)cc2)n1 | > 100 µM | > 100 µM | – | > 100 µM | – | > 100 µM | – | > 100 µM | – | – | – | – | – | – | – | – | – | –
13 | NC(=O)NC(=NCc1ccccc1)NCc1ccccc1 | > 100 µM | – | – | > 100 µM | > 100 µM | – | – | > 100 µM | – | – | – | – | – | – | – | – | – | –
14 | COC(=O)/C(=N\NC(=S)NN)C(C(=O)C(=O)Nc1ccccc1C(N)=O)c1nc2ccccc2[nH]c1=O (stereo not given) | – | > 100 µM | – | > 100 µM | > 100 µM | > 100 µM | – | > 100 µM | – | – | – | – | – | – | – | – | – | –
15 | COc1ccc(CCCCl)c(C2=NCCc3ccccc32)c1 | > 100 µM | > 100 µM | > 100 µM | > 100 µM | > 100 µM | – | – | > 100 µM | > 100 µM | > 100 µM | – | – | – | – | – | – | – | –
16 | O=C(NCCCNCCCCNCCCNC(=O)C(F)(F)F)C(F)(F)F | > 100 µM | – | > 100 µM | > 100 µM | > 100 µM | > 100 µM | > 100 µM | > 100 µM | > 100 µM | > 100 µM | – | – | – | – | – | – | – | –
17 | NC(=S)N=Nc1c(O)cc(Nc2ccc(Cl)cc2Cl)c2ccccc12 | 54.4 µM | – | > 100 µM | 88 µM | > 100 µM | – | > 100 µM | > 100 µM | > 100 µM | 97.5 µM | – | – | – | – | – | – | – | –
18 | NS(=O)(=O)c1nnc(NSc2ccc([N+](=O)[O-])cc2)s1 | > 100 µM | > 100 µM | > 100 µM | – | > 100 µM | > 100 µM | > 100 µM | > 100 µM | > 100 µM | > 100 µM | – | – | – | – | – | – | – | –
19 | COC(=O)c1cc(C(=O)OC)cc(-c2ccc3c(c2)-c2nc4c(c(-c5ccc(OC)cc5)c2CC3)CCc2ccc(-c3cc(C(=O)OC)cc(C(=O)OC)c3)cc2-4)c1 | > 100 µM | 1.06 µM | > 100 µM | – | – | > 100 µM | > 100 µM | > 100 µM | > 100 µM | > 100 µM | – | – | – | – | – | – | – | –
20 | CCOC(=O)C(NC(=O)c1ccc(N=NN(C)C)cc1)C(C)C (stereo not given) | > 100 µM | > 100 µM | – | > 100 µM | > 100 µM | > 100 µM | – | > 100 µM | – | – | – | – | – | – | – | – | – | –
21 | Cc1ncc([N+](=O)[O-])n1CCNC(=O)CCCCn1ccnc1[N+](=O)[O-] | > 100 µM | > 100 µM | > 100 µM | > 100 µM | > 100 µM | > 100 µM | > 100 µM | > 100 µM | – | > 100 µM | – | – | – | – | – | – | – | –
22 | COc1cc2nc(-c3c(F)cccc3F)n(Cc3c(F)cccc3F)c2cc1Cc1c(F)cccc1F | > 100 µM | > 100 µM | > 100 µM | – | > 100 µM | > 100 µM | > 100 µM | > 100 µM | > 100 µM | > 100 µM | – | – | – | – | – | – | – | –
23 | O=c1oc2ccccc2c2nc3ccccc3cc12 | – | > 100 µM | > 100 µM | > 100 µM | > 100 µM | > 100 µM | > 100 µM | > 100 µM | > 100 µM | > 100 µM | – | – | – | – | – | – | – | –
24 | Clc1cccc(C2ON=C(c3ccccc3)N2C23CC4CC(CC(C4)C2)C3)c1Cl (stereo not given) | > 10 µM | > 10 µM | > 10 µM | > 10 µM | > 10 µM | > 10 µM | > 10 µM | > 10 µM | > 10 µM | – | – | – | – | – | – | – | – | –

Source: PubChem BioAssay (NCI)
